What was measured:
[1] = tested on: MPL^W515L mouse model of myelofibrosis; test: MPL^W515L MF mouse model: survival; assay type: in vivo; conditions: MPL^W515L mice, oral 400 mg kg^−1 daily
Procedure: Generation of the MPL^W515L mutant MF mouse model was similar to previously described methods. Briefly, female donor BALB/c mice were treated with 5-fluorouracil at 150 mg kg^−1 intraperitoneal for 5 d before harvesting bone marrow. Hematopoietic stem and progenitor cells were enriched with CD117 magnetic beads (Miltenyi Biotec), transduced with retrovirus containing MSCV-hMPL W515L-IRES-GFP, then 50,000 transduced HSPCs along with 300,000 total non-stem cells were injected intravenously into lethally irradiated female BALB/c recipients. Development of MF was evaluated by spleen volumes using MRI beginning ~14 d following bone marrow transplantation (BMT) as outlined below, continuing weekly until end of the study. Mice were separated into equal groups based on spleen size ~14–21 d post-BMT, then treated with vehicle (Maisine CC) or LP-182 at 400 mg kg^−1 daily by oral gavage for 14–28 d or until mice were euthanized using guidelines for end stage illness and humane endpoints. Untreated healthy control animals were used for experimental comparisons. […] Soluble protein extracts were isolated by centrifugation at 15,000 x g for 15 min at 4 °C, quantified using Micro BCA protein assay (Thermo Scientific), then mixed with reducing 6X SDS-PAGE loading dye, heated for 8 min at 95 °C, and stored at −20 °C until immuno-blot analysis. […]

[2] = tested on: phosphorylated ERK1/2 (pT202/pY204) in SET-2 cells; test: Phospho-flow cytometry of pERK1/2 in SET-2 cells; assay type: cell-based, human; conditions: 5 μM, 16 h
Procedure: The human megakaryoblastic cell line, SET-2 (ATCC), was maintained in RPMI 1640 supplemented with 20% FBS and incubated for 16 h at 10^6 cells mL^−1 with LP-182 or vehicle (DMSO; dimethyl sulfoxide), then washed in ice-cold PBS, and collected for flow cytometry analysis. Single-cell suspensions of mouse spleen were prepared from MPL^W515L MF mice (below) in RPMI 1640 supplemented with 5% FCS. Red blood cells were lysed by ammonium chloride-mediated red cell lysis (RCL) buffer and passed through a nylon mesh, and then cells were counted. For intracellular phospho-protein staining, SET-2 or spleen cells were fixed and then permeabilized using BD Phospho-flow fixation buffer and Perm-Buffer III (BD biosciences) according to the manufacturer’s protocol. Intracellular phospho-protein staining was performed using fluorochrome-conjugated antibodies, pAKT (pS473)-Alexa Fluor 647 (MB89-61) or pERK1/2 (pT202/pY204)-Alexa Fluor 647 (20 A). All phospho-flow antibodies were purchased from BD Biosciences. […] Flow cytometry was performed on a FACS Fortessa (Becton, Dickinson and Co.) using FACSDiVa software, and data analyzed using FlowJo software (Tree Star). […]

[3] = Compound quantitation in blood and mesenteric lymph nodes; assay type: in vivo, mouse; conditions: female, CD-1, mouse, mesenteric lymph nodes; mice, 30 min after oral 100-1000 mg kg^−1
Procedure: Whole blood and mesenteric lymph nodes were collected either 30 min or 4 h following compound administration and stored at −20 °C until future processing and analysis by the University of Michigan Pharmacokinetics Core as above, or as outlined below, to determine compound concentrations in each tissue. […] Data was generated from n ≥ 4 individual animals per compound per study group or dose.
Briefly, acetonitrile was added to a final concentration of 60–80% to bone marrow, whole blood, plasma, lymphatic fluid, lymphatic proteo-lipid sub-fractions, or mesenteric lymph node samples for compound extraction. Extraction was performed by shaking and/or bead rupture using a Precellys Evolution tissue homogenizer (Bertin Technologies SAS). […] Optimization of MS and MS/MS parameters for MRM quantitation and maximum sensitivity of individual compounds was performed using SCIEX Analyst software (AB Sciex). […] All LC-MS/MS acquisitions were performed with an independent standard curve for each group of analytes and for each individual run. All solvents utilized were of Optima LC-MS Grade (Fisher Scientific). Data was generated from n ≥ 2 individual animals per compound per study condition or dose.

SMILES: O=C(NOCCOCCOCCOCCC(=O)N1CCN(c2cnc3ccc(-c4cnc(Cl)c(NS(=O)(=O)c5ccc(F)cc5)c4)cc3n2)CC1)c1ccc(F)c(F)c1Nc1ccc(I)cc1F [LP-182, N-(2-(2-(2-(3-(4-(7-(6-chloro-5-((4-fluorophenyl)sulfonamido)pyridin-3-yl)quinoxalin-2-yl)piperazin-1-yl)-3-oxopropoxy)ethoxy)ethoxy)ethoxy)-3,4-difluoro-2-((2-fluoro-4-iodophenyl)amino)benzamide]
- overall survival (Kaplan-Meier) [1]: significantly improved overall survival
- survival to planned end of study ([1]; 28 d treatment): survived 50 d post-transplant
- decrease of downstream activation of ERK1/2 [2]: ~ 50%
- concentration at 30 min [3]: 5 to 15 µM
